{"source": "ChEMBL document CHEMBL1152081", "about": "“1,25-Dihydroxyvitamin D3 Hybrid Analogs with Structural changes at both the A-ring and the C,D-ring side-chain. II” (1995)", "format_in_all_cases": "functional", "key": {"Rattus norvegicus [1]": {"organism": "Rattus norvegicus", "assay": "Stimulation of calcium currents by the compound in rat osteosarcoma cells at a concentration of 0.5 nM"}, "Rattus norvegicus [2]": {"organism": "Rattus norvegicus", "assay": "Stimulation of calcium currents by the compound in rat osteosarcoma cells at a concentration of 0.01 nM"}, "Rattus norvegicus [3]": {"organism": "Rattus norvegicus", "assay": "Stimulation of calcium currents by the compound in rat osteosarcoma cells at a concentration of 0.05 nM"}, "Rattus norvegicus [4]": {"organism": "Rattus norvegicus", "assay": "Stimulation of calcium currents by the compound in rat osteosarcoma cells at a concentration of 5.0 nM"}}, "data": [{"smiles": "C=C1/C(=C\\C=C2/CCC[C@]3(C)C([C@@H](C)COCCCC(C)(C)O)CC[C@@H]23)C[C@H](O)C[C@H]1CO", "note": "(stereo not given in full)", "values": [{"measurement": "Ca2+ current", "setting": "Rattus norvegicus [1]", "value": 10, "unit": "mV"}, {"measurement": "Ca2+ current", "setting": "Rattus norvegicus [2]", "value": 4.94, "unit": "mV"}, {"measurement": "Ca2+ current", "setting": "Rattus norvegicus [3]", "value": 7.3, "unit": "mV"}, {"measurement": "Ca2+ current", "setting": "Rattus norvegicus [4]", "value": 8.93, "unit": "mV"}]}, {"smiles": "C=C1/C(=C\\C=C2/CCC[C@]3(C)C([C@@H](C)CSc4cccc(C(C)(C)O)c4)CC[C@@H]23)C[C@@H](O)C[C@@H]1CO", "note": "(stereo not given in full)", "values": [{"measurement": "Ca2+ current", "setting": "Rattus norvegicus [1]", "value": 6.6, "unit": "mV"}, {"measurement": "Ca2+ current", "setting": "Rattus norvegicus [4]", "value": 11.18, "unit": "mV"}]}, {"smiles": "C=C1/C(=C\\C=C2/CCC[C@]3(C)C([C@@H](C)CSc4cccc(C(C)(C)O)c4)CC[C@@H]23)C[C@H](O)C[C@H]1CO", "note": "(stereo not given in full)", "values": [{"measurement": "Ca2+ current", "setting": "Rattus norvegicus [1]", "value": 6.24, "unit": "mV"}, {"measurement": "Ca2+ current", "setting": "Rattus norvegicus [4]", "value": 8.58, "unit": "mV"}]}, {"smiles": "C=C1/C(=C\\C=C2/CCC[C@]3(C)[C@@H]([C@H](C)CCCC(C)(C)O)CC[C@@H]23)C[C@@H](O)C[C@@H]1O", "note": "[CALCITRIOL]", "values": [{"measurement": "Ca2+ current", "setting": "Rattus norvegicus [1]", "value": 5.73, "unit": "mV"}, {"measurement": "Ca2+ current", "setting": "Rattus norvegicus [3]", "value": 1.78, "unit": "mV"}, {"measurement": "Ca2+ current", "setting": "Rattus norvegicus [4]", "value": 9.79, "unit": "mV"}]}, {"smiles": "C=C1/C(=C\\C=C2/CCC[C@]3(C)C([C@@H](C)COCCCC(C)(C)O)CC[C@@H]23)C[C@@H](O)C[C@@H]1CO", "note": "(stereo not given in full)", "values": [{"measurement": "Ca2+ current", "setting": "Rattus norvegicus [1]", "value": 8.8, "unit": "mV"}, {"measurement": "Ca2+ current", "setting": "Rattus norvegicus [2]", "value": 5.42, "unit": "mV"}, {"measurement": "Ca2+ current", "setting": "Rattus norvegicus [3]", "value": 7.33, "unit": "mV"}, {"measurement": "Ca2+ current", "setting": "Rattus norvegicus [4]", "value": 8.99, "unit": "mV"}]}]}
